Measured values from ChEMBL document CHEMBL1201862, “PubChem BioAssay data set” (2004).
The source made the active and inactive calls.

How the values were obtained:
cells [1] = experiment: cells
[2] = Late stage counterscreen for inhibitors of Trypanosoma brucei methionyl tRNA synthetase (MetRS): Luminescence-based cell-based high throughput dose response assay to identify compounds that are cytotoxic to Jurkat human T lymphocyte cells.; assay type: functional
Bcl-2-like protein 10 = Bcl-2-like protein 10 (Homo sapiens, UniProt Q9HD36); experiment: Bcl-B/TR3 peptide binding disruption – biochemical, fluorescence polarization, FITC-TR3 peptide, selectivity assay for Bfl-1 inhibitor project, primary screen (AID 748);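 further: fluorescence polarization from a fluorescein-labelled TR3 peptide binding purified Bcl-B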
Chain of Bcl-2-like protein 10 (Q9HD36 whole entry): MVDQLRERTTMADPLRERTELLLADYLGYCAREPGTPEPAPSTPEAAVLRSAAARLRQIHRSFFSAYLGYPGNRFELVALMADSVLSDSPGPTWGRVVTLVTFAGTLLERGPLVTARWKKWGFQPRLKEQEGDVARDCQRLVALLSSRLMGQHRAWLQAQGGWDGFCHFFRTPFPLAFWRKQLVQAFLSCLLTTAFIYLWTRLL

[3] = IC50 of Artemis nuclease activity blockers – biochemical, fluorescence intensity, dose response (AID 720701); assay type: functional;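 further: Artemis endonuclease enzyme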
BJ [4] = experiment: BJ-TERT fibroblast viability loss – cell-based, RAS-independent, luminescence, dose response (AID 1933); assay type: functional; conditions: Homo sapiens
BJ [5] = experiment: cells; assay type: functional, cell-based; conditions: Homo sapiens
BJ [6] = experiment: BJ-TERT-LT-ST fibroblast viability loss – cell-based, RAS-independent, luminescence, dose response (AID 1935); assay type: functional; conditions: Homo sapiens;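 further: BJ fibroblasts immortalized with TERT plus LT and ST oncogenes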
[7] = DRD fibroblast viability loss – cell-based, non-viral oncogenic, luminescence, dose response (AID 1934); assay type: functional; conditions: Homo sapiens
[8] = toxicity toward HEK293 cells – cell-based, dry powder samples, cytotoxicity control, dose response (AID 720567); assay type: functional
[9] = toxicity toward HepG2 hepatoma cells – cell-based, dry powder samples, cytotoxicity control, dose response (AID 720568); assay type: functional
[10] = molecular target: Protein disulfide-isomerase A6 (Homo sapiens, UniProt Q15084); experiment: reduced insulin turbidity driven by ERp5 (PDIA6) – biochemical, absorbance 650 nm, cherry-picked samples, dose response (AID 720566)
[11] = Trypanosoma cruzi growth suppression in host cells – NIH3T3 host cells, beta-gal luminescence, confirmation (AID 2044); assay type: functional, cell-based;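 further: intracellular parasites grown in NIH/3T3 mouse fibroblasts as host cells; luminescent beta-galactosidase reporter signal from transgenic T. cruzi replicating inside host cells; inhibitors lower the luminescence signal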
[12] = NIH3T3 cell viability loss – ATP luminescence, mouse fibroblasts, counter-screen, dose response (AID 2010); assay type: functional, cell-based;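 further: cells exposed to compound for about 90 hours before reading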
[13] = viability loss in HepG2 liver cells – cell-based, ATP luminescence, cherry-pick, set 6, cytotoxicity control, dose response (AID 1053125); assay type: functional
cells [14] = conditions: HEK293
Beta-galactosidase = Beta-galactosidase (Escherichia coli, UniProt Q8VNN2); experiment: detection-enzyme interference by beta-gal modulators – biochemical, E. coli enzyme, set 3, artefact control for CCR6 antagonist project, dose response (AID 504712); assay type: functional
Chain of Beta-galactosidase (Q8VNN2 whole entry): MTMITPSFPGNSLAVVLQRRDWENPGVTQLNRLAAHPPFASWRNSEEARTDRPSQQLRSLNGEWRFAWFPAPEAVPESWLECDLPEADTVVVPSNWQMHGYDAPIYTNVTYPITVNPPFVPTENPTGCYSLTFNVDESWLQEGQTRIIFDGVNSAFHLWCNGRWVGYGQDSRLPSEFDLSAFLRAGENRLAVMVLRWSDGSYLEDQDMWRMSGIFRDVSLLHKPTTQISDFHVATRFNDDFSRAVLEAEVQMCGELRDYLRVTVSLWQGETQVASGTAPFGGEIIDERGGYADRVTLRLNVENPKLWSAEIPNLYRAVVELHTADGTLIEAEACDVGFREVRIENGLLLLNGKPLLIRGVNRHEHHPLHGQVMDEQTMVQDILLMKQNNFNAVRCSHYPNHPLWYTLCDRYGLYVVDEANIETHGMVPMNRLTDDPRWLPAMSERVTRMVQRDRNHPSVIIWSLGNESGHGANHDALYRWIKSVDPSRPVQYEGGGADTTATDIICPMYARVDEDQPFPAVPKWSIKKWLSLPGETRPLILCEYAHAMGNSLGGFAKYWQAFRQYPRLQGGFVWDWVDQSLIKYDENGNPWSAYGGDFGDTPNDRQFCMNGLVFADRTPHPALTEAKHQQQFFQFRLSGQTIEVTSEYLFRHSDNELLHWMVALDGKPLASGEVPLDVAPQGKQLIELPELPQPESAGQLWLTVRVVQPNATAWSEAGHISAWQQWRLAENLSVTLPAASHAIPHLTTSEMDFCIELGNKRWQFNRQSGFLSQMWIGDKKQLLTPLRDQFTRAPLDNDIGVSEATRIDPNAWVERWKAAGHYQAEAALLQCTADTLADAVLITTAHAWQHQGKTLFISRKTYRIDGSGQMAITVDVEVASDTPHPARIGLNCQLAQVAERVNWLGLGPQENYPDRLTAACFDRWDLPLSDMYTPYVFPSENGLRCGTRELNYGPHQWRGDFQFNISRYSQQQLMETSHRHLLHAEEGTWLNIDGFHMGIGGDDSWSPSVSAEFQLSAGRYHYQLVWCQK

Cysteine protease ATG4B = Cysteine protease ATG4B (Homo sapiens, UniProt Q9Y4P1); assay type: functional;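 further: Fluorescence-based dose-response confirmation assay measuring inhibition of ATG4B activity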
Chain of Cysteine protease ATG4B (Q9Y4P1 whole entry): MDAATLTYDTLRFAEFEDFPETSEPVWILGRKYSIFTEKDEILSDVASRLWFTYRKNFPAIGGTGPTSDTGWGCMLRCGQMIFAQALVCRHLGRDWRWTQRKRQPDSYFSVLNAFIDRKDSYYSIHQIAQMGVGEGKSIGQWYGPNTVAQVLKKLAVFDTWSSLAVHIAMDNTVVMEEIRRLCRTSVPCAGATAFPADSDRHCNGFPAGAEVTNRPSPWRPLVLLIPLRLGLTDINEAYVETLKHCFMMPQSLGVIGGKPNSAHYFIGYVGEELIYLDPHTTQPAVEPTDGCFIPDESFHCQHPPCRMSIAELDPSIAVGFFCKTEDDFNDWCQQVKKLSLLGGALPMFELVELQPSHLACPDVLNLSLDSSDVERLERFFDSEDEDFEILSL

[15] = molecular target: Heat shock protein HSP 90-alpha (Homo sapiens, UniProt P07900); assay type: functional, organism-based
Phospholipase A2 = Phospholipase A2 (Homo sapiens, UniProt P04054); assay type: functional;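 further: confirmatory dose-response counterscreen on phospholipase A2, testing hits that came from an ultra-high-throughput screen for ATG4B inhibitors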
Chain of Phospholipase A2 (P04054 whole entry): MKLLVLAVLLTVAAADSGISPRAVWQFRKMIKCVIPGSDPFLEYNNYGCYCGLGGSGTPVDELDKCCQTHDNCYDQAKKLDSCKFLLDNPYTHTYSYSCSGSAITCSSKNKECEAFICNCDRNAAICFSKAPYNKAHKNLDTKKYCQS

Vero = experiment: viability of Vero cells under compound – cytotoxicity control for flavivirus capping enzyme inhibitors (AID 588742); assay type: functional; conditions: Chlorocebus sabaeus
Genome polyprotein = Genome polyprotein (dengue virus type 2, UniProt P29990); experiment: flavivirus cap methylation enzyme inhibition – biochemical, confirmation dose response, primary screen (AID 588689); assay type: functional
Chain of Genome polyprotein (P29990 2492-3391 limits assumed): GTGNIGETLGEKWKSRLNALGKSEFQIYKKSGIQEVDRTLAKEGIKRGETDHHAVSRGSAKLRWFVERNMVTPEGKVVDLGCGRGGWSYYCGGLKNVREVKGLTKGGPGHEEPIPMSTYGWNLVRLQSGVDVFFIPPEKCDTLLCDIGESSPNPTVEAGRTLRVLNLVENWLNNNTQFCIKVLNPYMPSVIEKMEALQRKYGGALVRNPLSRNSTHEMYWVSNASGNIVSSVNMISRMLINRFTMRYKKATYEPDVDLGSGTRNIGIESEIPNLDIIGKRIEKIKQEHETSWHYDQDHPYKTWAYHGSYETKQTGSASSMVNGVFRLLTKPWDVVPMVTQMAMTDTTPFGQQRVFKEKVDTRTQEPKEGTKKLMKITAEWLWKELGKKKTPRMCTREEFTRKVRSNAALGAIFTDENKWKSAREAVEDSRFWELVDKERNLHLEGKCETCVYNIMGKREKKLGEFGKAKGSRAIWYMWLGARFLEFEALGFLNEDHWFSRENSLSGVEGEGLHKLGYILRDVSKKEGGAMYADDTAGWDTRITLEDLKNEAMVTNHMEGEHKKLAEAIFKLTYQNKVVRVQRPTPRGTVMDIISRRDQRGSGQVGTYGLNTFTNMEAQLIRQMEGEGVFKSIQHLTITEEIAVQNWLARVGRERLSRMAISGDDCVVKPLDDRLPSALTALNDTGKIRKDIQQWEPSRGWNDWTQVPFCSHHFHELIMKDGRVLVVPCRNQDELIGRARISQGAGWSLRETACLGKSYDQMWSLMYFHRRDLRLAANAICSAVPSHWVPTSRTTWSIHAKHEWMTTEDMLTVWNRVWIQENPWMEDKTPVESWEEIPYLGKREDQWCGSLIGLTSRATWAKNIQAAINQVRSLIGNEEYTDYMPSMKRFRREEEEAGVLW

[16] = Fluorescence-based cell-based high throughput dose response assay for inhibitors of the interaction of nucleotide-binding oligomerization domain containing 2 (NOD2) and the receptor-interacting serine-threonine kinase 2 (RIPK2).; assay type: functional; conditions: Homo sapiens
[17] = molecular target: T1, Sentrin-specific protease 8 (Homo sapiens, UniProt Q96LD8); assay type: functional
T1 sequence (Q96LD8 whole entry): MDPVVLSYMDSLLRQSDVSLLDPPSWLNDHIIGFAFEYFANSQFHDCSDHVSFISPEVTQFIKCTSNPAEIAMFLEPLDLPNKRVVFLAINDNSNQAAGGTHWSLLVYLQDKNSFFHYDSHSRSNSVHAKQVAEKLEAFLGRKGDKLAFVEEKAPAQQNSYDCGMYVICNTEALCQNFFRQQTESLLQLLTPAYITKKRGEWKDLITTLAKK

[18] = viability loss in HeLa cells – cytotoxicity control for MgcRacGAP inhibitor project, dose response (AID 624300); assay type: functional
[19] = molecular target: T1, Sentrin-specific protease 8; assay type: functional; remark: listed apart in the source
[20] = molecular target: T2, Rac GTPase-activating protein 1 (Homo sapiens, UniProt Q9H0H5); experiment: blockers of MgcRacGAP-driven Rac1 GTP hydrolysis – biochemical, ADP Hunter fluorescence, primary and confirmatory, confirmation (AID 624330); assay type: functional
T2 sequence (Q9H0H5 whole entry): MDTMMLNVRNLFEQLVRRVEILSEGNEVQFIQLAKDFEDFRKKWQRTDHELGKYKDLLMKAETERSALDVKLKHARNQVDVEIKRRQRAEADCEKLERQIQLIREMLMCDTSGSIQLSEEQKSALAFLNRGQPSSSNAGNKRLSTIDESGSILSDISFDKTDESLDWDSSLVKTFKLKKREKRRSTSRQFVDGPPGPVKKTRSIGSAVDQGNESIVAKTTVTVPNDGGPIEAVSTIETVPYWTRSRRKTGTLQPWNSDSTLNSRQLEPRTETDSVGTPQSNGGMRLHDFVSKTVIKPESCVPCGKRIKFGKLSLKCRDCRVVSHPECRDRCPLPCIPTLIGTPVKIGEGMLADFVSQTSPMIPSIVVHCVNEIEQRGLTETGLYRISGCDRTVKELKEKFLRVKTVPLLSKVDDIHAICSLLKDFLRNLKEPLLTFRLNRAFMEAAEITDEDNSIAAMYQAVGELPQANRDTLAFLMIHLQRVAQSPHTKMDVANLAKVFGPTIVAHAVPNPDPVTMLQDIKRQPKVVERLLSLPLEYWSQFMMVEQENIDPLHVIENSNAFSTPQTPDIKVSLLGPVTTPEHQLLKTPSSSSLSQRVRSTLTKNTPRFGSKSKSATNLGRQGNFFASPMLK

[21] = molecular target: T3, Histone-lysine N-methyltransferase NSD2 (Homo sapiens, UniProt O96028); assay type: biochemical
T3 sequence (O96028 whole entry): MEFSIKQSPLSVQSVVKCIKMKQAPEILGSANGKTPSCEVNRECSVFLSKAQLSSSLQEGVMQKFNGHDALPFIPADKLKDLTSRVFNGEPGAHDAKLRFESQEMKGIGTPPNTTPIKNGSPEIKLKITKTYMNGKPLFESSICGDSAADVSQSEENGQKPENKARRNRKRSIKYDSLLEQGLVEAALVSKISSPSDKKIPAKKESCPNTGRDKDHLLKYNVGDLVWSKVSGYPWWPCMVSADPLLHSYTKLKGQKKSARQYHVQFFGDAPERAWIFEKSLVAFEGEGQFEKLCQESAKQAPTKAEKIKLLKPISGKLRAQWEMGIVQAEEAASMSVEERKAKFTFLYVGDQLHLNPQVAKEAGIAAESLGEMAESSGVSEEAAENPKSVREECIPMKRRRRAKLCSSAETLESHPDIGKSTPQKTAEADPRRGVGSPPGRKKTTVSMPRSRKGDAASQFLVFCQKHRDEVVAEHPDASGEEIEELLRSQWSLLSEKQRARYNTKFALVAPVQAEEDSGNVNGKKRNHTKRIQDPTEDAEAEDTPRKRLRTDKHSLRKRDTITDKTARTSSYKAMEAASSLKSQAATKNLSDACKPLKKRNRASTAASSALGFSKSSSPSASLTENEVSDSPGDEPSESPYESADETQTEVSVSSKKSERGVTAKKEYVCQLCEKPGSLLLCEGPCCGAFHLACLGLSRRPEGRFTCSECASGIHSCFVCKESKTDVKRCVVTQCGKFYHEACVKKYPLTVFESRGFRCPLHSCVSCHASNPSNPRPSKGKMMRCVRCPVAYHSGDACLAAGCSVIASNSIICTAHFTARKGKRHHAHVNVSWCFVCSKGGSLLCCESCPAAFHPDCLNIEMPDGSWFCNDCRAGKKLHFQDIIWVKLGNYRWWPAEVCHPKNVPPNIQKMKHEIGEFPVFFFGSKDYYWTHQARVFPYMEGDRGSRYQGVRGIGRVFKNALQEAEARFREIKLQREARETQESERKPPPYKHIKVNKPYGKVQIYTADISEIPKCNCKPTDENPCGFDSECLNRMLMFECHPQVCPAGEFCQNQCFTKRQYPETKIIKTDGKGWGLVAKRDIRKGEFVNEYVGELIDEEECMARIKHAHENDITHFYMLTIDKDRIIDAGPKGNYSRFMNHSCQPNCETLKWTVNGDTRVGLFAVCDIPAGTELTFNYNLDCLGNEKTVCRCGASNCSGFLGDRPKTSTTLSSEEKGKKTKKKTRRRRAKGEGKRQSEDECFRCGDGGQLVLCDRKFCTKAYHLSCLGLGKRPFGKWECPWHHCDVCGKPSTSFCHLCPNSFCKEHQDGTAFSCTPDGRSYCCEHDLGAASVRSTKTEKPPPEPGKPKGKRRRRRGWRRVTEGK

[22] = molecular target: Tyrosyl-DNA phosphodiesterase 2 (Homo sapiens, UniProt O95551); experiment: potency against TDP2 phosphodiesterase activity – biochemical, epi absorbance, IC50, dose response (AID 743297)
[23] = molecular target: 1-phosphatidylinositol 4,5-bisphosphate phosphodiesterase gamma-1 (Homo sapiens, UniProt P19174); experiment: Counterscreen for inhibitors of phospholipase C isozymes (PLC-B3): Fluorescence-based biochemical high throughput dose response assay to identify inhibitors of phospholipase C isozymes (PLC-gamma1).
Chain of 1-phosphatidylinositol 4,5-bisphosphate phosphodiesterase gamma-1 (P19174 whole entry): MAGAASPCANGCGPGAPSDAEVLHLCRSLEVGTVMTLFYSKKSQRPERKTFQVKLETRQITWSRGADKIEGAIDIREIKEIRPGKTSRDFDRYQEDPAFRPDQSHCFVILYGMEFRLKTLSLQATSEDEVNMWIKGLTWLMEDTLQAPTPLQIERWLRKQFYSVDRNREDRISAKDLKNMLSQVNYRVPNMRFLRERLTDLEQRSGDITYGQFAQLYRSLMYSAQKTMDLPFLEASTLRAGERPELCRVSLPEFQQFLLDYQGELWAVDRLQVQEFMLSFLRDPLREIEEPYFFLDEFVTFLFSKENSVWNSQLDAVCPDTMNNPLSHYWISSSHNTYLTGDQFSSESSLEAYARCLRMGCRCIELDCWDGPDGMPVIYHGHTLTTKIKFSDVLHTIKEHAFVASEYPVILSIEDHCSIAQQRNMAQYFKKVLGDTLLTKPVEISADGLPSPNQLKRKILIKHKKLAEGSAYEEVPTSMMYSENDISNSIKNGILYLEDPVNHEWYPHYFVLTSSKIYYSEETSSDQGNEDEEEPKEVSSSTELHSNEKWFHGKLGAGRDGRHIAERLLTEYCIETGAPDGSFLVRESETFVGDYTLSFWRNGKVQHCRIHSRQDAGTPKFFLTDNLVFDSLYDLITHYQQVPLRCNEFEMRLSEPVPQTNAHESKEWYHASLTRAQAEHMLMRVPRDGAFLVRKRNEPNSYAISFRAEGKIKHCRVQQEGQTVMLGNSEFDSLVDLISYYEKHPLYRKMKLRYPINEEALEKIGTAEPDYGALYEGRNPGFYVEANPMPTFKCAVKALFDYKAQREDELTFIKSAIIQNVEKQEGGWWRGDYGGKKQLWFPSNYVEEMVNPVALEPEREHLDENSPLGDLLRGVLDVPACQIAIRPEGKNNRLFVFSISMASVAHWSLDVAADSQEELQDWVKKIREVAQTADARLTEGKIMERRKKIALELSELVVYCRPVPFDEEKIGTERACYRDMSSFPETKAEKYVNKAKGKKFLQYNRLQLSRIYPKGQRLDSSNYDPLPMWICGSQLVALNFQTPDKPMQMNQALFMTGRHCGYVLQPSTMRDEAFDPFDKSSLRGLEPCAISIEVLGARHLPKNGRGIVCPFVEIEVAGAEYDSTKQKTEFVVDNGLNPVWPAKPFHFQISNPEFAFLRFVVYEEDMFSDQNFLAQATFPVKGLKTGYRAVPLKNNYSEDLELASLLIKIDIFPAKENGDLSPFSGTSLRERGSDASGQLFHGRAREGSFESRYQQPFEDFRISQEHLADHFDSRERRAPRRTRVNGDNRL

[24] = molecular target: 1-phosphatidylinositol 4,5-bisphosphate phosphodiesterase beta-3 (Homo sapiens, UniProt Q01970); experiment: Fluorescence-based biochemical high throughput dose response assay to identify inhibitors of phospholipase C isozymes (PLC-B3).
Kallikrein-7 = Kallikrein-7 (Homo sapiens, UniProt P49862); experiment: Fluorescence Intensity-based biochemical primary high throughput dose response assay to identify activators of kallikrein-7 (K7) zymogen.
Chain of Kallikrein-7 (P49862 whole entry): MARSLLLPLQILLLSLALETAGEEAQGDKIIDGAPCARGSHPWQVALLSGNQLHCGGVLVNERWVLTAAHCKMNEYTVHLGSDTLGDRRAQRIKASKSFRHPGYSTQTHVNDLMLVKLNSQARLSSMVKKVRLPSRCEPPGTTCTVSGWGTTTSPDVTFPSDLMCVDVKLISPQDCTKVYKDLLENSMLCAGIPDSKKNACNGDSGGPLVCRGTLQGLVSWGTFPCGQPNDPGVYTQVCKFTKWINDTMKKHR

[25] = viability of BHK-21 cells – cell-based, secondary screen, cytotoxicity control for flavivirus guanylyltransferase probe project (AID 624078); assay type: functional
[26] = inhibitors of non-replicating M. tuberculosis, dose response, luciferase, dry powder (AID 651619); assay type: functional; conditions: Mycobacterium tuberculosis
[27] = inhibitors of non-replicating M. tuberculosis, dose response, luciferase, dry powder (AID 651620); assay type: functional; conditions: Mycobacterium tuberculosis
[28] = A549 cell viability loss – cherry-picked samples, cytotoxicity control, dose response (AID 1053184); assay type: functional, cell-based
[29] = molecular target: Kappa-type opioid receptor (Homo sapiens, UniProt P41145); experiment: Late-stage fluorescence-based cell-based dose response assay for antagonists of kappa opioid receptor 1 (OPRK1).; assay type: functional
Chain of Kappa-type opioid receptor (P41145 whole entry): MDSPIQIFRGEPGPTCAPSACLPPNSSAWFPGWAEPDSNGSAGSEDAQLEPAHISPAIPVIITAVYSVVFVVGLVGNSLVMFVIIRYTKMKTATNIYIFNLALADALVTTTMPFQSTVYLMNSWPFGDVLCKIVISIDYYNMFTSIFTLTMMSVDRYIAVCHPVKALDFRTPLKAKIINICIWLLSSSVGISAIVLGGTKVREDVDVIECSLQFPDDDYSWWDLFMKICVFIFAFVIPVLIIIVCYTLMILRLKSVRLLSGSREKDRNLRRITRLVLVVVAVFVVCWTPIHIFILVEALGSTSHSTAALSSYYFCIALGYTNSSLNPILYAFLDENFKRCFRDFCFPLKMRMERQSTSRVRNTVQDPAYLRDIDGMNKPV

Mu-type opioid receptor = Mu-type opioid receptor (Homo sapiens, UniProt P35372); experiment: Late-stage results from the probe development effort to identify antagonists of OPRK1: luminescence-based cell-based dose response OPRM1 counterscreen, Set 2.; assay type: functional
[30] = molecular target: Delta-type opioid receptor (Homo sapiens, UniProt P41143); experiment: Late-stage results from the probe development effort to identify antagonists of OPRK1: fluorescence-based cell-based dose response OPRD1 counterscreen, Set 2.; assay type: functional
Chain of Delta-type opioid receptor (P41143 whole entry): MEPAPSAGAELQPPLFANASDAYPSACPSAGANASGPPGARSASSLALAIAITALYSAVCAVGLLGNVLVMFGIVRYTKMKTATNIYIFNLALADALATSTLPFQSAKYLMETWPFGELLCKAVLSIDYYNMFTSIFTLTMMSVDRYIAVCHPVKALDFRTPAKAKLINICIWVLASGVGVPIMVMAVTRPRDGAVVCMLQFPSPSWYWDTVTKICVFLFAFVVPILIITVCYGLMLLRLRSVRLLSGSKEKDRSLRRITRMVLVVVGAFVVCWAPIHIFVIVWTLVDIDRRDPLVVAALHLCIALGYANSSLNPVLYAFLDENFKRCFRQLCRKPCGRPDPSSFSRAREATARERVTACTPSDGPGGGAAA

[31] = molecular target: Sphingosine 1-phosphate receptor 1 (Homo sapiens, UniProt P21453); experiment: Late-stage counterscreen for antagonists of kappa opioid receptor 1 (OPRK1): fluorescence-based cell-based dose response assay to identify antagonists of Sphingosine 1-Phosphate Receptor 1 (S1P1).; assay type: functional

SMILES: O=C(O)c1ccc(-c2ccc(/C=C3\NC(=O)N(Cc4ccc(Cl)cc4)C3=O)o2)cc1
- AC50 (cells [1]): 1.78 µM (active)

SMILES: O=C(CC=NOCc1ccc([N+](=O)[O-])cc1)Nc1ccc(Br)cc1
- IC50 [2]: > 83.3 µM (inactive)

SMILES: Cc1cc(OCC(=O)Nc2ccc(N3CCCC3)cc2)cc(C)c1Cl
- IC50 (Bcl-2-like protein 10): > 100 µM (inactive)
- IC50 [3]: > 20 µM (inactive)

SMILES: COc1cc(C(=O)NCCOc2cc(C)cc(C)c2)cc(OC)c1OC
- EC50 (BJ [4]): 16.3 µM (active)
- EC50 (BJ [5]): 5.25 µM (active)
- EC50 (BJ [6]): 17.1 µM (inconclusive)
- EC50 [7]: 4.9 µM (active)
- AC50 [8]: 16.9 µM (active)
- AC50 [9]: 24.7 µM (active)

SMILES: Cc1cc(OCCCCOc2ccc(S(N)(=O)=O)c(C)c2)ccc1S(N)(=O)=O
- AC50 [10]: 45.5 µM (active)

SMILES: N#Cc1c2ccc(O)cc2n2ccccc12
- EC50 [11]: 0.68 µM (active)
- EC50 [12]: > 60 µM (not active)
- AC50 [13]: > 52 µM (inactive)
- AC50 (cells [14]): > 52 µM (inactive)

SMILES: O=C1C(=C(I)I)c2ccccc2-c2ccccc21
- IC50 (Beta-galactosidase): > 66.6 µM (inactive)
- IC50 (Cysteine protease ATG4B): 7.13 µM (active)
- AC50 [15]: 5.65 µM (active)
- IC50 (Phospholipase A2): 58.1 µM (inactive)
- CC50 (Vero): 15.3 µM (active)
- IC50 (Genome polyprotein): 29 µM (active)
- IC50 [16]: 1.2 µM (active)
- IC50 [17]: > 100 µM (inactive)
- CC50 [18]: 27.4 µM (active)
- IC50 [19]: 1.74 µM (active)
- IC50 [20]: 19.8 µM (active)
- AC50 [21]: 2.24 µM (active)
- IC50 [22]: 8.29 µM (active)
- IC50 [23]: > 122 µM (inactive)
- IC50 [24]: > 122 µM (inactive)

SMILES: C=C(C)Cn1c2ccc(NC(=O)NCc3ccccc3)cc2c(=O)n1C
- EC50 (Kallikrein-7): > 69.5 µM (inactive)

SMILES: Cc1ccc(S(=O)(=O)Nc2cc(Sc3nc(C)cc(C)n3)c(O)c3ccccc23)cc1
- CC50 [25]: 20.9 µM (active)

SMILES: Fc1ccc(CSc2nnc(-c3ccc(Cl)cc3)o2)cc1
- IC90 [26]: 2 µM (active)
- IC90 [27]: 2 µM (active)

SMILES: C[C@@H]1CN([C@@H](C)CO)C(=O)Cc2cc(NC(=O)C3CCCCC3)ccc2O[C@@H]1CN(C)Cc1ccc(Cl)c(Cl)c1
- AC50 [28]: 37.8 µM (active)

SMILES: Clc1ccc2c(Nc3ccc4c(c3)OCO4)ccnc2c1
- IC50 [29]: 13.8 µM (inactive)
- IC50 (Mu-type opioid receptor): > 50 µM (inactive)
- IC50 [30]: > 50 µM (inactive)
- IC50 [31]: > 50 µM (inactive)
